Reference: PMC6930503, “Antiviral, Antimicrobial and Antibiofilm Activity of Selenoesters and Selenoanhydrides” (Molecules, 2019)
≈ marks a conversion by molar mass, not a printed value.

Experiments:
[1] = tested on: Candida albicans ATCC 10231; conditions: reference, range calculated from data in bibliography; cited from earlier work
[2] = tested on: Candida krusei ATCC 14243; conditions: reference, range calculated from data in bibliography; cited from earlier work
[3] = tested on: Candida parapsilosis ATCC 22019; conditions: reference, range calculated from data in bibliography; cited from earlier work
[4] = tested on: Candida parapsilosis ATCC 22019; experiment: Antifungal broth microdilution MIC; type: cell-based; conditions: Lodderomyces parapsilosis, ATCC22019, read-out: Minimal inhibitory concentration
Procedure: (§1) This MIC values were calculated by using the broth microdilution method (Table 3).
(§2) Broth microdilution method. […] Determination of the MIC values was performed by using the broth microdilution method, according to EUCAST standards.

[5] = tested on: Cryptococcus diffluens ATCC 32059; experiment: Antifungal broth microdilution MIC; type: cell-based; conditions: Naganishia diffluens, ATCC32059, read-out: Minimal inhibitory concentration
Procedure: as §1, §2

[6] = tested on: Candida albicans ATCC 10231; experiment: Antifungal broth microdilution MIC; type: cell-based; conditions: ATCC10231, read-out: Minimal inhibitory concentration
Procedure: as §1, §2

[7] = tested on: Candida krusei ATCC 14243; experiment: Antifungal broth microdilution MIC; type: cell-based; conditions: Pichia kudriavzevii, ATCC14243, read-out: Minimal inhibitory concentration
Procedure: as §1, §2

[8] = tested on: Candida albicans ATCC 10231; experiment: Antifungal disk-diffusion; conditions: ATCC10231, 72 h, read-out: Inhibition Zone Diameter
Procedure: (§6) Disk diffusion. The antifungal activity of the selenocompounds against selected pathogenic yeasts were screened, measuring their inhibition zones [49]. Solutions of the selenocompounds were set at two concentrations: 200 µM (from a 10 mM stock solution) and 10 mM. The sterile filter paper discs (diameter (D) 6 mm) impregnated with the solutions (10 µL of solutions) were placed on Saboraud Dextrose Agar (SDA), inoculated with the respective suspensions of yeasts (inocula of 0.5 McFarland’s standard). The solvent (DMSO) served as negative control, and an additional plate was inoculated without disks, to serve as growth control. The inocula were used within 15 min of preparation, the disks were applied within 15 min of inoculating the plates, and incubation started within 15 min of application of the disks (according to EUCAST standards). The plates were then incubated for 72 h, under aerobic conditions, at 37 °C. Inhibition zone diameters generated by the tested compounds (including the diameter of the disc) were measured. All experiments were performed in triplicate.

[9] = tested on: Candida tropicalis ATCC 13803; experiment: Antifungal disk-diffusion; conditions: ATCC13803, 72 h, read-out: Inhibition Zone Diameter
Procedure: as §6

[10] = tested on: Candida glabrata ATCC 36909; experiment: Antifungal disk-diffusion; conditions: Nakaseomyces glabratus, ATCC36909, 72 h; for zone of inhibition at 200 µM: read-out: Inhibition Zone Diameter, 200 µM on disk, 72 h; for zone of inhibition at 10000 µM: read-out: Inhibition Zone Diameter, 10 mM on disk, 72 h
Procedure: as §6

[11] = MTT cytotoxicity assay on Vero cells; conditions: African green monkey
[12] = tested on: Candida parapsilosis ATCC 22019; experiment: Antifungal disk-diffusion; conditions: Lodderomyces parapsilosis, ATCC22019, 72 h, read-out: Inhibition Zone Diameter
Procedure: as §6

[13] = tested on: Candida krusei ATCC 14243; experiment: Antifungal disk-diffusion; conditions: Pichia kudriavzevii, ATCC14243, 72 h; for zone of inhibition at 200 µM: read-out: Inhibition Zone Diameter, 200 µM on disk, 72 h; for zone of inhibition at 10000 µM: read-out: Inhibition Zone Diameter, 10 mM on disk, 72 h
Procedure: as §6

[14] = tested on: S. aureus ATCC 25923; experiment: Biofilm formation assay with crystal violet; type: cell-based; conditions: Staphylococcus aureus, ATCC25923, 48 h; for inhibition at 50 µM: compound at 50 μM
Procedure: (§3) The biofilm-forming ability of S. Typhimurium and S. aureus ATCC strains was studied in 96-well microtiter plates, using Luria-Bertani (LB) broth without salt (S. Typhimurium) or tryptic soy broth TSB (S. aureus) in the presence of selenocompounds. Initially, overnight cultures were diluted to an optical density (OD) of 0.1 at 600 nm and then added to each well, with the exception of the medium control wells and compounds were added individually at ½ MIC. The final volume was 200 μL in each well. Plates were incubated at 30 °C, for 48 h, with gentle agitation (100 rpm). After the incubation period, the medium was discarded, and the plate was washed with tap water, to remove unattached cells. Then, 200 μL of crystal violet (CV; 0.1% [v/v]) was added to the wells and incubated for 15 min at room temperature. CV was removed from the wells, and the plate was washed again with tap water. Then, 200 μL of 70% ethanol was added to each well, and the biofilm formation was determined by measuring the OD at 600 nm, using a FLUOstar Optima plate reader (BMG Labtech, Aylesbury, UK). The antibiofilm effect of selenocompounds was expressed in the percentage (%) decrease in biofilm formation. The assay was repeated a minimum of three times. The results were analyzed by using the t-test and p-values of <0.05 were considered significant.

[15] = tested on: HSV-2; experiment: Anti-HSV-2 activity by qPCR in infected Vero cells; conditions: for minimal effective concentration: Human alphaherpesvirus 2, Vero, 24 h, read-out: lowest concentration with (significant) antiviral activity against HSV-2, Vero cells infected with HSV-2, MOI 0.01, qPCR after 24 h; for antiviral activity at x-fold lower concentration than acyclovir: compared with acyclovir
[16] = tested on: S. enterica serovar Typhimurium 14028s; experiment: Biofilm formation assay with crystal violet; type: cell-based, Salmonella enterica serovar Typhimurium; conditions: Salmonella enterica, compound at 50 μM, 48 h
Procedure: as §3

[17] = tested on: S. enterica serovar Typhimurium 14028s; experiment: Antibiofilm effect in combination with tetracycline; type: cell-based, Salmonella enterica serovar Typhimurium; conditions: compound at ½ MIC; for antibiofilm effect in the presence of TET: 1.25 µM of TET; for effect on the antibiofilm activity of TET compared to TET alone: 2.5 µM of TET
Procedure: (§4) […]; 4, 5, 7, 8 and 9 for S. Typhimurium).
(§5) […]. The effect was determined by two-fold broth microdilution method in 96-well plates, using serial dilutions of TET and CIP. The first four rows contained two-fold dilutions of antibiotics, and combinations of the antibiotics and tested compounds were added into the last four rows. The overnight bacterial cultures were diluted to an OD of 0.1 at 600 nm and then added to each well, in 50 μL LB, without salt or TSB, with the exception of the medium control wells. The plates were then incubated at 30 °C, for 48 h, with gentle agitation (100 rpm), and the biofilm formation was determined by measuring the OD at 600 nm, using a FLUOstar Optima plate reader. The antibiofilm effect of antibiotic alone and in combination with selenocompounds was expressed in the percentage (%) of decrease in biofilm formation. The results were analyzed by using the t-test and p-values of <0.05 were considered significant.

[18] = tested on: selected pathogenic yeasts; experiment: Antifungal disk-diffusion screening, overall statement on all evaluated strains; conditions: 200 µM and 10 mM on disk
Procedure: as §6

[19] = tested on: S. aureus ATCC 25923; experiment: Antibiofilm effect in combination with ciprofloxacin; type: cell-based, Staphylococcus aureus; conditions: CIP at 1.6 µM, compound at ½ MIC
Procedure: as §4, §5

[20] = tested on: Cryptococcus diffluens ATCC 32059; experiment: Antifungal disk-diffusion; conditions: Naganishia diffluens, ATCC32059, 72 h, read-out: Inhibition Zone Diameter
Procedure: as §6

[21] = Vero cells infected with HSV-2, qPCR

SMILES	MIC [4] [µM]	MIC [5] [µM]	MIC [6] [µM]	MIC [7] [µM]	zone of inhibition at 10000 µM [8] [mm]	zone of inhibition at 10000 µM [10] [mm]	IC50 at 24 h [11] [µM]	zone of inhibition at 10000 µM [12] [mm]	zone of inhibition at 10000 µM [13] [mm]	inhibition at 50 µM [14] [%]	minimal effective concentration [15] [µM]	antiviral activity at concentration x-fold lower than the cytotoxic concentration (IC50 in Vero cells) [15] [fold]	inhibition at 50 µM [16] [%]	effect on the antibiofilm activity of TET compared to TET alone [17]	also measured
CC[C@H](C)C[C@H](C)CCCCCCCCC(=O)N[C@H]1C[C@@H](O)[C@@H](NCCN)NC(=O)[C@@H]2[C@@H](O)CCN2C(=O)[C@H]([C@H](O)CCN)NC(=O)[C@H]([C@H](O)[C@@H](O)c2ccc(O)cc2)NC(=O)[C@@H]2C[C@@H](O)CN2C(=O)[C@H]([C@@H](C)O)NC1=O [CSP, caspofungin]	–	–	–	–	–	–	–	–	–	–	–	–	–	–	Minimal inhibitory concentration [1]: ≤0.007 to 0.110 µM; Minimal inhibitory concentration [2]: 0.055 to 0.229 µM; Minimal inhibitory concentration [3]: 0.110 to 1.83 µM
O=C1[Se]C(=O)c2ccccc21 [Compound 1]	> 200	> 200	50 (≈ 10.6 µg/mL)	100 (≈ 21.1 µg/mL)	> 30	13	> 100	6	> 30	> 70	12.5	8	–	–	zone of inhibition at 200 µM [8]: 14 mm; zone of inhibition at 200 µM [9]: 3 mm; zone of inhibition at 10000 µM [9]: > 30 mm; zone of inhibition at 200 µM [10]: 2 mm; zone of inhibition at 200 µM [13]: 11 mm
C[Se]C(=O)c1ccc(C(=O)[Se]C)s1 [Compound 2]	–	–	–	–	–	–	> 100	–	–	–	–	–	> 50	–	antiviral activity against HSV-2 (in words) [15, 21]: did not reduce the number of HSV-2
C[Se]C(=O)c1cccc(C(=O)[Se]C)n1 [Compound 3]	–	–	–	–	–	–	> 100	–	–	–	10	–	> 50	–	–
C[Se]C(=O)c1cccc(C(=O)[Se]C)c1 [Compound 4]	–	–	–	–	–	–	> 100	–	–	–	–	–	75	–	antibiofilm effect in the presence of TET [17]: significantly higher antibiofilm effects; antiviral activity against HSV-2 (in words) [15, 21]: did not reduce the number of HSV-2
C[Se]C(=O)c1ccc(C(=O)[Se]C)cc1 [Compound 5]	–	–	–	–	–	–	> 100	–	–	–	–	–	73	significantly reduced the activity of the antibiotic	antiviral activity against HSV-2 (in words) [15, 21]: did not reduce the number of HSV-2
NC(=O)C[Se]C(=O)c1ccccc1 [Compound 6]	–	–	–	–	–	< 10	> 100	–	–	> 70	25	2	–	–	–
COC(=O)C[Se]C(=O)c1ccc(Cl)cc1 [Compound 7]	–	–	–	–	–	–	> 100	–	–	> 70	12.5	8	–	significantly reduced the activity of the antibiotic	antifungal activity in the disk-diffusion assay (in words) [18]: did not show antifungal activity; effect on the antibiofilm activity of CIP [19]: significantly increased the activity of CIP; concentration at which replication of HSV-2 was completely inhibited [15, 21]: 50 µM
O=C(C[Se]C(=O)c1ccccc1)Oc1ccccc1 [Compound 8]	–	–	–	–	–	–	> 100	–	–	> 70	12.5	8	–	significantly reduced the activity of the antibiotic	antibiofilm effect in the presence of TET [17]: significantly higher antibiofilm effects
CC(=O)C[Se]C(=O)c1ccc(Cl)cc1 [Compound 9]	> 200	100 (≈ 27.6 µg/mL)	> 200	50 (≈ 13.8 µg/mL)	> 30	> 30	31	> 30	> 30	–	–	–	–	significantly reduced the activity of the antibiotic	zone of inhibition at 200 µM [9]: 2 mm; zone of inhibition at 10000 µM [9]: 25 mm; zone of inhibition at 200 µM [20]: 12 mm; zone of inhibition at 10000 µM [20]: 29 mm; zone of inhibition at 200 µM [10]: 6 mm; antibiofilm effect in the presence of TET [17]: significantly higher antibiofilm effects; zone of inhibition at 200 µM [12]: 4 mm; zone of inhibition at 200 µM [13]: 19 mm
CC(C)(C)C(=O)C[Se]C(=O)c1ccc(Cl)cc1 [Compound 10]	> 200	> 200	> 200	50 (≈ 15.9 µg/mL)	> 30	25	45	> 30	> 30	–	5	9	–	–	zone of inhibition at 10000 µM [9]: 16 mm; zone of inhibition at 200 µM [12]: 2 mm; zone of inhibition at 200 µM [13]: 14 mm; inhibition at 10 µM ([14]; compound at 10 μM): > 70%; antiviral activity at x-fold lower concentration than acyclovir [15]: 8 fold
COc1cc(OC)cc(C(=O)[Se]CC(=O)C(C)(C)C)c1 [Compound 11]	100 (≈ 34.3 µg/mL)	100 (≈ 34.3 µg/mL)	> 200	> 200	19	18	39	> 30	12	–	1.25	31	–	–	zone of inhibition at 200 µM [20]: 10 mm; zone of inhibition at 10000 µM [20]: 18 mm; effect on the antibiofilm activity of CIP [19]: significantly increased the activity of CIP; zone of inhibition at 200 µM [12]: 14 mm; inhibition at 25 µM ([14]; compound at 25 μM): > 70%; antiviral activity at x-fold lower concentration than acyclovir [15]: 4 fold
Nc1nc2c(ncn2COCCO)c(=O)[nH]1 [acyclovir, reference compound]	–	–	–	–	–	–	–	–	–	–	10	–	–	–	complete inhibition of HSV-2 replication ([15]; examined concentrations 1.25–2500 μM): could not inhibit the replication of HSV-2 completely
